Columns and labels:
Aβ plaques = assay: Film autoradiography of postmortem AD brain sections; type: binding, human
Method: [^18F]tracers: Brain sections from AD subjects were obtained by freezing the brain in powdered dry ice and cut into 20 micrometer-thick sections. The sections were incubated with [^18F]tracers (200,000-250,000 cpm/200 μl) for 1 hr at room temperature. The sections were then dipped in saturated Li2CO3 in 40% EtOH (two two-minute washes) and washed with 40% EtOH (one two-minute wash) followed by rinsing with water for 30 sec. After drying, the ^18F-labeled sections were exposed to Kodak MR film overnight.

[1] = molecular target: amyloid plaques in AD brain homogenates (Homo sapiens, UniProt P05067); details: displacement of 125I-IMPY binding
Method: Values represent potencies (Ki) of compounds for displacement of ^125I-IMPY binding to amyloid plaques in AD brain homogenates.
Competition binding assays were carried out in 12×75 mm borosilicate glass tubes. The reaction mixture contained 50 μl of pooled AD brain homogenates (20-50 μg), 50 μl of [^125I]IMPY (0.04-0.06 nM diluted in PBS) and 50 μl of inhibitors (10^−5-10^10 M diluted serially in PBS containing 0.1% bovine serum albumin) in a final volume of 1 ml. Nonspecific binding was defined in the presence of 600 nM IMPY in the same assay tubes. The mixture was incubated at 37° C. for 2 h and the bound and the free radioactivity were separated by vacuum filtration through Whatman GF/B filters using a Brandel M-24R cell harvester followed by 2×3 ml washes of PBS at room temperature. Filters containing the bound 1-125 ligand were counted in a gamma counter (Packard 5000) with 70% counting efficiency. Under the assay conditions, the specifically bound fraction was less than 15% of the total radioactivity. The results of inhibition experiments were subjected to nonlinear regression analysis using equilibrium binding data analysis from which Ki values were calculated.

[2] = Organ distribution in normal ICR mice after iv injection of radiolabeled tracer; type: in vivo; details: 5% EtOH in saline
Method: The mice (n=3 for each time point) were sacrificed by cervical dislocation at designated time-points post injection. The organs of interest were removed and weighed, and the radioactivity was counted with an automatic gamma counter. The percentage dose per organ was calculated by a comparison of the tissue counts to suitably diluted aliquots of the injected material. The total activity of the blood was calculated under the assumption that it is 7% of the total body weight. The % dose/g of samples was calculated by comparing the sample counts with the count of the diluted initial dose.

[3] = tested on: pooled AD and control brain tissue homogenates; assay: Specific binding of [18F]2 to pooled AD and control brain tissue homogenates; parameters: species or system human
Source text: FIG. 8 depicts specific binding of [^18F]2 to pooled AD and control brain tissue homogenates. Gray and white matters were dissected from the cortical regions. […] The values presented are the mean±SEM of six measurements.

fibrillar Aβ aggregates = fibrillar Aβ aggregates (Homo sapiens, UniProt P05067); details: Mathis et al. 1997; read-out: inhibition constants (Ki) for binding to fibrillar Aβ aggregates; cited from earlier work
[4] = 2 min, second organ list r16-r25
[5] = 30 min, first organ list r6-r15
[6] = 30 min, second organ list r16-r25
[7] = 1 hr, second organ list r16-r25
[8] = 2 hr, second organ list r16-r25

Chain of fibrillar Aβ aggregates (P05067 672-711 limits assumed): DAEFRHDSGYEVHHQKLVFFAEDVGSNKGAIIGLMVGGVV
Chain of amyloid plaques in AD brain homogenates (P05067 672-711): as the sequence (P05067 672-711 limits assumed) above

CN(C)c1ccc(/C=C/c2ccc(OCCOCCOCCF)nc2)cc1 [Compound 2, (E)-2-(2-(2-(2-fluoroethoxy)ethoxy)ethoxy)-5-(4-dimethylaminostyryl)pyridine]
autoradiography result (Aβ plaques): confirmed the specific binding related to the presence of Aβ plaques
Ki [1]: 2.5 ± 0.4 nM

CN(C)c1ccc(/C=C/c2ccc(OCCOCCOCCF)nc2)cc1 [[^18F]2, (E)-2-(2-(2-(2-fluoroethoxy)ethoxy)ethoxy)-5-(4-dimethylaminostyryl)pyridine]
Biodistribution: Blood ([2]; 2 min, first organ list r6-r15): 6.05 ± 0.33 % dose/g
Biodistribution: Bone ([2]; 2 min, first organ list r6-r15): 5.97 ± 0.56 % dose/g
Biodistribution: Brain ([2]; 2 min, first organ list r6-r15): 3.49 ± 0.58 % dose/g
Biodistribution: Heart ([2]; 2 min, first organ list r6-r15): 0.75 ± 0.14 % dose/g
Biodistribution: Kidney ([2]; 2 min, first organ list r6-r15): 6.38 ± 0.95 % dose/g
Biodistribution: Liver ([2]; 2 min, first organ list r6-r15): 24.90 ± 1.49 % dose/g
Biodistribution: Lung ([2]; 2 min, first organ list r6-r15): 1.07 ± 0.20 % dose/g
Biodistribution: Muscle ([2]; 2 min, first organ list r6-r15): 7.03 ± 1.30 % dose/g
Biodistribution: Skin ([2]; 2 min, first organ list r6-r15): 2.52 ± 0.24 % dose/g
Biodistribution: Spleen ([2]; 2 min, first organ list r6-r15): 0.43 ± 0.11 % dose/g
Biodistribution: Blood [2, 4]: 3.04 ± 0.29 % dose/g
Biodistribution: Bone [2, 4]: 1.49 ± 0.08 % dose/g
Biodistribution: Brain [2, 4]: 7.77 ± 1.34 % dose/g
Biodistribution: Kidney [2, 4]: 14.19 ± 2.34 % dose/g
Biodistribution: Liver [2, 4]: 17.00 ± 0.69 % dose/g
Biodistribution: Lung [2, 4]: 5.65 ± 0.89 % dose/g
Biodistribution: Muscle [2, 4]: 0.62 ± 0.10 % dose/g
Biodistribution: Skin [2, 4]: 0.59 ± 0.03 % dose/g
Biodistribution: Spleen [2, 4]: 4.65 ± 0.76 % dose/g
Biodistribution: Blood [2, 5]: 2.65 ± 0.22 % dose/g
Biodistribution: Bone [2, 5]: 2.52 ± 0.34 % dose/g
Biodistribution: Brain [2, 5]: 0.48 ± 0.07 % dose/g
Biodistribution: Heart [2, 5]: 0.17 ± 0.03 % dose/g
Biodistribution: Kidney [2, 5]: 1.68 ± 0.11 % dose/g
Biodistribution: Liver [2, 5]: 9.26 ± 0.83 % dose/g
Biodistribution: Lung [2, 5]: 0.30 ± 0.01 % dose/g
Biodistribution: Muscle [2, 5]: 8.58 ± 0.26 % dose/g
Biodistribution: Skin [2, 5]: 3.99 ± 0.34 % dose/g
Biodistribution: Spleen [2, 5]: 0.15 ± 0.05 % dose/g
Biodistribution: Blood [2, 6]: 1.33 ± 0.16 % dose/g
Biodistribution: Bone [2, 6]: 0.63 ± 0.12 % dose/g
Biodistribution: Brain [2, 6]: 1.03 ± 0.11 % dose/g
Biodistribution: Heart [2, 6]: 1.28 ± 0.16 % dose/g
Biodistribution: Kidney [2, 6]: 3.77 ± 0.36 % dose/g
Biodistribution: Liver [2, 6]: 7.21 ± 0.69 % dose/g
Biodistribution: Lung [2, 6]: 1.73 ± 0.17 % dose/g
Biodistribution: Muscle [2, 6]: 0.75 ± 0.04 % dose/g
Biodistribution: Skin [2, 6]: 0.93 ± 0.13 % dose/g
Biodistribution: Spleen [2, 6]: 1.57 ± 0.51 % dose/g
Biodistribution: Blood ([2]; 1 hr, first organ list r6-r15): 3.48 ± 0.47 % dose/g
Biodistribution: Bone ([2]; 1 hr, first organ list r6-r15): 4.39 ± 0.40 % dose/g
Biodistribution: Brain ([2]; 1 hr, first organ list r6-r15): 0.55 ± 0.10 % dose/g
Biodistribution: Heart ([2]; 1 hr, first organ list r6-r15): 0.22 ± 0.03 % dose/g
Biodistribution: Kidney ([2]; 1 hr, first organ list r6-r15): 1.96 ± 0.21 % dose/g
Biodistribution: Liver ([2]; 1 hr, first organ list r6-r15): 10.52 ± 2.18 % dose/g
Biodistribution: Lung ([2]; 1 hr, first organ list r6-r15): 0.35 ± 0.07 % dose/g
Biodistribution: Muscle ([2]; 1 hr, first organ list r6-r15): 10.62 ± 2.59 % dose/g
Biodistribution: Skin ([2]; 1 hr, first organ list r6-r15): 4.42 ± 0.65 % dose/g
Biodistribution: Spleen ([2]; 1 hr, first organ list r6-r15): 0.13 ± 0.03 % dose/g
Biodistribution: Blood [2, 7]: 1.80 ± 0.16 % dose/g
Biodistribution: Bone [2, 7]: 1.13 ± 0.01 % dose/g
Biodistribution: Brain [2, 7]: 1.28 ± 0.20 % dose/g
Biodistribution: Heart [2, 7]: 1.66 ± 0.24 % dose/g
Biodistribution: Kidney [2, 7]: 4.29 ± 0.52 % dose/g
Biodistribution: Liver [2, 7]: 8.13 ± 1.42 % dose/g
Biodistribution: Lung [2, 7]: 1.82 ± 0.31 % dose/g
Biodistribution: Muscle [2, 7]: 0.95 ± 0.18 % dose/g
Biodistribution: Skin [2, 7]: 1.06 ± 0.09 % dose/g
Biodistribution: Spleen [2, 7]: 1.56 ± 0.17 % dose/g
Biodistribution: Blood ([2]; 2 hr, first organ list r6-r15): 2.15 ± 0.25 % dose/g
Biodistribution: Bone ([2]; 2 hr, first organ list r6-r15): 6.49 ± 0.08 % dose/g
Biodistribution: Brain ([2]; 2 hr, first organ list r6-r15): 0.37 ± 0.08 % dose/g
Biodistribution: Heart ([2]; 2 hr, first organ list r6-r15): 0.18 ± 0.08 % dose/g
Biodistribution: Kidney ([2]; 2 hr, first organ list r6-r15): 0.96 ± 1.58 % dose/g
Biodistribution: Liver ([2]; 2 hr, first organ list r6-r15): 6.86 ± 0.59 % dose/g
Biodistribution: Lung ([2]; 2 hr, first organ list r6-r15): 0.20 ± 0.36 % dose/g
Biodistribution: Muscle ([2]; 2 hr, first organ list r6-r15): 5.96 ± 0.06 % dose/g
Biodistribution: Skin ([2]; 2 hr, first organ list r6-r15): 2.91 ± 0.16 % dose/g
Biodistribution: Spleen ([2]; 2 hr, first organ list r6-r15): 0.10 ± 0.17 % dose/g
Biodistribution: Blood [2, 8]: 1.08 ± 0.06 % dose/g
Biodistribution: Bone [2, 8]: 1.64 ± 0.50 % dose/g
Biodistribution: Brain [2, 8]: 0.84 ± 0.08 % dose/g
Biodistribution: Heart [2, 8]: 1.32 ± 0.33 % dose/g
Biodistribution: Kidney [2, 8]: 2.19 ± 0.36 % dose/g
Biodistribution: Liver [2, 8]: 4.96 ± 0.90 % dose/g
Biodistribution: Lung [2, 8]: 0.98 ± 0.08 % dose/g
Biodistribution: Muscle [2, 8]: 0.52 ± 0.08 % dose/g
Biodistribution: Skin [2, 8]: 0.68 ± 0.16 % dose/g
Biodistribution: Spleen [2, 8]: 1.14 ± 0.18 % dose/g
specific binding ([3]; AD brain homogenates, gray matter): High specific binding
specific binding ([3]; AD brain, white matter homogenates): Relatively low binding
specific binding ([3]; control brain homogenates, grey or white matter): significantly lower specific binding

O=C(O)c1cc(/N=N/c2ccc(-c3ccc(/N=N/c4ccc(O)c(C(=O)O)c4)cc3)cc2)ccc1O [CG, chrysamine-G]
Ki (fibrillar Aβ aggregates): 370 nM
